Earlier results on 1 compound are cited in paper PMC3313018 (Cancer Chemotherapy and Pharmacology, 2011).

The test system of this data set is patients with advanced renal cell carcinoma. Particulars: cited from earlier work.

On to `CO[C@H]1C[C@@H]2CC[C@@H](C)[C@@](O)(O2)C(=O)C(=O)N2CCCC[C@H]2C(=O)O[C@H]([C@H](C)C[C@@H]2CC[C@@H](OCCO)[C@H](OC)C2)CC(=O)[C@H](C)/C=C(\C)[C@@H](O)[C@@H](OC)C(=O)[C@H](C)C[C@H](C)/C=C/C=C/C=C/1C` [everolimus], for which, for the setting “Japanese patients with advanced renal cell carcinoma ref 18”, the Incidence of pneumonitis is given as 27%. In addition, the “Incidence of pneumonitis, overall rate” value (patients with renal cell carcinoma overall ref 18) was 11%.
